Laboratory results as given in EP2573088A1, “Pyrano[3,2-c]benzopyran-6(2h)-one derivatives and uses thereof” (Prous Institute for Biomedical Research, S.A., priority 2011, dated 2013).

What was measured:
fed mice = assay: Blood glucose after i.p. glucose challenge, fed mice; format: in vivo
Procedure: (§1) Male C57BL/6 mice weighing 25 ± 3 g were provided by Harlan. Space allocation for five animals was 29 x 18 x 13 cm. All animals were maintained in a controlled temperature (21-23 °C) and humidity (50-70%) environment on a 12-hour light/dark cycle for 7 days in the animal facilities. Free access to standard chow for mice and reverse osmosis water were given. All aspects of this work, including housing, experimentation and disposal of animals, were performed in general accordance with the Guide for the Care and Use of Laboratory Animals.
(§2) Then, the blood glucose concentrations were measured at 15, 30, 60, 90, and 120 minutes after the glucose injection (Glucometer and Reactive Strips Accu-chek Aviva, Roche) [Zhang, W. et al. Pharmacol Res 2011, 63: 284-93]. Free access to food and water was maintained throughout the study. Under fasting conditions, mice were deprived of food 4 hours before and during the experiment and the experimental protocol was followed as detailed above.

[1] = test system: streptozotocin-induced diabetic mice; assay: Blood glucose in mice with streptozotocin-induced diabetes; format: in vivo; details: for reduction in blood glucose concentrations when compared to basal values: range over the experimental time points
Procedure: as §1
In mice with streptozotocin-induced diabetes [Tokunaga, H. et al. Eur J Pharmacol 1983, 87(2-3): 237-43], diabetes was induced with a […] i.p. injection of streptozotocin (Sigma) 50 mg/kg body weight, freshly dissolved in NaCl 0.9% during 5 consecutive days. After 4 weeks, those mice (80%) with basal glucose concentrations under fasting (4 hours) conditions above 220 mg/dL were included in the assay. The test substance, positive and negative controls were administered by the p.o. route 30 minutes before measurement of the blood glucose concentrations at 0, 15, 30, 60, 90, and 120 minutes. Free access to water was maintained throughout the study.

fasted mice = assay: Blood glucose after i.p. glucose challenge, fasted mice; format: in vivo; details: oral
Procedure: as §1, §2

[2] = test system: Syrian hamster embryo (SHE) cell, BALB/c 3T3, and CH310T1/2; assay: Cell transformation assays (CTAs), carcinogenic assessment; format: cell-based; details: CTA assays, compared with structurally related compounds with carcinogenic potential
Text: Carcinogenic potential may arise from a direct genotoxic effect or nongenotoxic effects. Epigenetic factors may contribute to tumor cell proliferation by routes other than a direct interaction with DNA. In that case, xenobiotics may act as cancer promoters in species other than those employed in preclinical drug development. Cell transformation assays (CTAs), including the main in vitro CTAs --the Syrian hamster embryo (SHE) cell, BALB/c 3T3, and CH310T1/2 assays-- are experimental tools reviewed by the OECD [Environment, Health and Safety Publications, Series on Testing and Assessment nº 31. Detailed review paper on cell transformation assays for detection of chemical carcinogens. November 28, 2006].

[3] = Maximum tolerated dose after single oral administration; details: mouse, in vivo, mice, observed up to 72 hours
Procedure: The maximum tolerated dose (MTD) was assessed in mice after single oral administration of high doses of Example 1 of 1 g/kg, 500 mg/kg, and 100 mg/kg, and the development of acute toxic symptoms (mortality, convulsions, tremors, muscle relaxation, sedation, etc.) and autonomic effects (diarrhea, salivation, lacrimation, vasodilation, piloerection, etc.) was observed during the first hour. The animals were then observed again for mortality at 3, 24, 48, and 72 hours. The mice were sacrificed if they lost more than 20% of their body weight or if there were other signs of significant toxicity. The MTD obtained for Example 1 in the above experimental conditions was 1 g/kg.

[4] = test system: human platelet-rich plasma; assay: Platelet aggregation inhibition after induction by ADP, arachidonic acid or collagen; format: cell-based; details: different concentrations
Procedure: Platelet aggregation inhibition was evaluated after the induction of aggregation by ADP, arachidonic acid or collagen in human platelet-rich plasma [Bertele, V. et al. Science 1983, 220(4596): 517-9; Knöfler, R. et al. Thromb Res 1995, 77(1): 69-78]. […] Platelet function was additionally tested under rheological conditions in human whole blood using a platelet function test device, PFA-100 [Frossard, M. et al. Circulation 2004, 110(11): 1392-7; Hennekens, C.H. et al. Circulation 2004, 110(12): 1706-8]. An increase (26%-30%) in aggregation time in the presence of collagen-epinephrine was noted, indicating platelet aggregation-inhibitory activity for compounds in examples 1 to 12 at 1 µM concentration under rheological conditions.

Structure (SMILES) | decrease in blood glucose concentrations (fed mice; fed mice, oral, after i.p. glucose challenge (1 g/kg)) | reduction in blood glucose concentrations when compared to basal values (fed mice; fed, single oral dose 3 mg/kg, 90 minutes after glucose challenge) | reduction in blood glucose concentrations when compared to basal values (fed mice; fed, single oral dose 3 mg/kg, 120 minutes after glucose challenge) | reduction in blood glucose concentrations when compared to basal values (fed mice; fed, single oral dose 30 mg/kg, 90 minutes after glucose challenge) | reduction in blood glucose concentrations when compared to basal values (fed mice; fed, single oral dose 30 mg/kg, 120 minutes after glucose challenge) | reduction in blood glucose concentrations when compared to basal values (fed mice; fed, single oral dose 300 mg/kg, 90 minutes after glucose challenge) | reduction in blood glucose concentrations when compared to basal values (fed mice; fed, single oral dose 300 mg/kg, 120 minutes after glucose challenge) | hypoglycemic effect ([1]; 0.1 mg/kg) | reduction in blood glucose concentrations when compared to basal values ([1]; 3 mg/kg oral) | reduction in blood glucose concentrations when compared to basal values ([1]; 30 mg/kg oral) | reduction in blood glucose concentrations when compared to basal values ([1]; 300 mg/kg oral) | decrease in blood glucose concentrations ([1]; mice with streptozotocin-induced diabetes, oral) | decrease in blood glucose concentrations (fasted mice; fasted mice, after i.p. glucose challenge (1 g/kg)) | hypoglycemic activity (fasted mice; fasted, 0.3 mg/kg) | carcinogenic potential [2] | MTD at 72 h [3] | inhibition of platelet aggregation [4] | decrease in blood glucose concentrations (fed mice; fed, positive control, dose not given, 90 minutes after glucose challenge) | decrease in blood glucose concentrations (fed mice; fed, positive control, dose not given, 120 minutes after glucose challenge)
CCc1ccc(Cc2ccc3c(c2)[C@@H]2O[C@H](CO)[C@@H](O)[C@H](O)[C@H]2OC3=O)cc1 [Example 1, (2R,3S,4S,4aR,10bS)-9-(4-Ethylbenzyl)-3,4-dihydroxy-2-(hydroxymethyl)-3,4,4a,10b-tetrahydropyrano[3,2-c][2]benzopyran-6(2H)-one] | decrease in blood glucose concentrations | 12.01% | 9.63% | 6.04% | 4.71% | 2.52% | 10.2% | No relevant hypoglycemic effect | 7-22% | 7-26% | 18-42% | decrease in blood glucose concentrations | decrease in blood glucose concentrations | hypoglycemic activity | no carcinogenic potential | 1000 mg/kg | inhibition of platelet aggregation | – | –
CCCCNC(=O)NS(=O)(=O)c1ccc(C)cc1 [Tolbutamide, reference compound] | – | – | – | – | – | – | – | – | – | – | – | – | – | – | – | – | – | 7.76% | 3.22%
